# Values of other authors in patent publication US20110280855A1, “VITAMIN C COMPOSITIONS” (priority 2006, published 2011).
# How the values were obtained:
# [1] = system: murine neuroblastoma as well as melanoma cell lines; settings: in vitro; dependent on the source of tumor cells
# [2] = system: Normal lung tissue of mice; settings: normal lung tissue of mice upon treatment
smiles,measurement,setting,value
O=C(O)CCCCC1CCSS1 (stereo not drawn) [alpha-lipoic acid],increase of GSH content compared to untreated controls,[1],30-70%
same,increase in glutathione,[2],about 50%
